# Results taken from patent publication US20050208125A1, “Substantially pure solid form of the enol tautomer of 3-indolypyruvic acid for use in the treatmetn of central nervous system disturbances” (priority 2002, published 2005).
# Like-named read-outs stand apart in the source and are kept apart here.
# Experiments:
# [1] = Intravenous injection in baboons, enol and kynurenic acid plasma kinetics; format: in vivo, baboon; settings: intravenously, 200 mg/Kg
# Description: (§1) It is already known from literature that the 3-indolylpyruvic acid may function, in suitable methabolic situations, as direct precursor to the kynurenic acid, the most important endogenous inhibitor of the excitatory amino acids. […] Therefore, comparison tests were conducted between the enol form of 3-indolylpyruvic acid, obtained according to the method described above in examples 1 and 2, the keto form (obtained solubilizing a standard preparation of 3-indolylpyruvic acid obtained from commercial sources in 0.1M NaOH), and a mixture of the two forms (obtained solubilizing the above standard preparation in a pH 7.4 phosphate buffer). […] Moreover, the enol form is found to be 100 to 1000 times more powerful than the keto one, both in protecting membrane phospholipids from degradation and in blocking luminol chemiluminescence induced by a xanthin/xanthin oxidase mixture. Concerning the formation of kynurenic acid, under the same experimental conditions the enol form of 3-indolylpyruvic acid always produced from 20 to 100 times more kynurenic acid than the keto form or the mixture of the two forms. […] Concomitantly, kynurenic acid began to form, reaching a plasma peak at +90-+180 min from the enol injection, with remarkable interindividual variations.
# [2] = Incubation in rat liver homogenates; format: in vitro ADME
# Description: The near-pure enol tautomer of 3-indolylpyruvic acid, obtained by the method described above in examples 1 and 2, was investigated on rat tissue homogenates, in order to highlight its participation in the methabolic pathways characterizing the use of tryptophan and of its derivatives in mammalian cells. […] This phenomenon, ascribed to the presence in biological fluids of a specific tautomerase already reported in literature, allows the enol form to be subjected to biochemical transformations by specific enzymes active on the indoles. In particular, when the enol form of the ketoacid is incubated in rat liver homogenates, […] is rather linear in time, is independent from the pH—at least in the 6.5÷7.5 interval—and it leads to the conversion of over the 50% of the ketoacid in 5 hours.
# [3] = test system: LAN5 human neuroblastoma cells; assay: Neuronal cell sprouting (neurite length); format: cell-based; settings: 10 μM, 7 days; for average length of the neurites: ± SD, untreated 21.8 ± 8.8
# Description: LAN5 human neuroblastoma cells were seeded in 6-well plates (25.000 cells/well) in DMEM (Dulbecco's Modified Eagle's Medium) medium, additioned with 10% -fetal serum and 40 micrograms/ml gentamycin. After 24 hours, the enol tautomer of 3-indolylpyruvic acid or its derivatives, at an end concentration of 10 μM was added to the culture medium. The treatment was continued for 7 days, with medium replacement and addition of the compound under test every three days. At +7 days the cells were photopgraphed, using a Leitz Dialux 20 microscope. Then, neurite length was measured.
# The results, reported in the following Table, express, in microns, the average length of the neurites for each treatment; ± is the standard deviation: […]
# [4] = Stability of the enol form in solution (UV 325 nm peak, HPLC); format: physicochemical
# Description: When the enol tautomer of 3-indolylpyruvic acid is solubilized in an aqueous environment, the decline of the UV peak at 325 nm, more or less quick according to the solution temperature, the pH and the type of buffer used is immediately observed. […] In the experimental conditions used, a quicker disappearance of the 325 nm peak is observed when the enol tautomer of the ketoacid is solubilized in diluted NaOH solutions; it follows that in this solvent the keto-enol equilibrium shifts towards the keto form in a few seconds.
# At longer incubation times also the gem-diole form disappears, without giving rise to the keto form.
# In particular, using a phosphate solution at pH 7.4, it is observed that the enol form drops to the 44% already at +30 min, whereas the gem-diole form begins to predominate (increase) at +1 hour (44% vs 23%), yet it stabilizes at about +2 hours (49%), and then gradually declines.
# [5] = test system: Human melanoma cells (A2058 line); assay: Melanoma cell invasion through Matrigel; format: cell-based; settings: mean of three experiments ± SD
# Description: Matrigel is an extracellular biological matrix extracted from the Englebreth-Holm-Swarm murine sarcoma, composed of the major components of the basement membrane like laminin, entactin, collagen IV and proteoglycans. At room temperature, Matrigel forms a gel that can promote the growth of primary and continuous cell lines, and moreover can act as medium (substrate) for the adhesion, the differentiation, the migration and the invasion of tumor cell lines. Due to such features, a Matrigel test is commonly used in order to characterize the activity of substances capable of interfering with the motility of tumor cells and of inflammatory response cells. The test is conducted in wells partitioned by an 8 micron pore size membrane: Matrigel (12.4 micrograms) is uniformly spread on the membrane, whereas a chemoattractant (600 microliters), consisting of the supernatant of a murine hembryo cell line (3T3) is inserted in the bottom section of the well. The cells to be tested are seeded in the top section of the well, whereas the compounds that could interfere with their motility are placed above as well as below the membrane, so as to prevent the formation of a concentration gradient. At the end of the experiment, the cells that have crossed the membrane are counted.
# Human melanoma cells (A2058 line) were cultured in MEM medium, in a 5% CO2 at 37° C. Having reached the desired growth level, the (100.000) cells were seeded in the top section of the well. The enol of 3-indolylpyruvic acid and its salts, solubilized in the cell culture medium were placed in the top and bottom section of the well.
# superoxide anion = assay: Neutralizing power towards oxygen free radicals; format: biochemical; settings: contrarily to the keto tautomer form
# Description: as §1
# [6] = Plasma levels in rats after gastric lavage; format: in vivo; settings: rat, oral, read-out: plasma level
# Description: Raising the dose to 400 mg/Kg, values of 160±13 mcg/ml for acute administration and of 189±68 mcg/ml for chronic administration were obtained.
# [7] = Plasma levels in dogs after administration in food-mixed pellets; format: in vivo; settings: dog, oral
# Description: In dogs as well analogous results were obtained, as the administration (in food-mixed pellets) of 100 mg/Kg enol form of 3-indolylpyruvic acid led, at +1 hour, to plasma rates of 106±47 -mcg/ml in acute, and of 97±17 mcg/ml in chronic. 285 mg/Kg doses produced, at +1 hour,concentrations of 136±17 mcg/ml in acute, and of 120±8 mcg/ml in chronic.
# [8] = Incubation in rat tissue homogenates, enol form versus keto form; format: in vitro ADME
# Description: The near-pure enol tautomer of 3-indolylpyruvic acid, obtained by the method described above in examples 1 and 2, was investigated on rat tissue homogenates, in order to highlight its participation in the methabolic pathways characterizing the use of tryptophan and of its derivatives in mammalian cells. […] This phenomenon, ascribed to the presence in biological fluids of a specific tautomerase already reported in literature, allows the enol form to be subjected to biochemical transformations by specific enzymes active on the indoles. In particular, when the enol form of the ketoacid is incubated in rat liver homogenates, a gradual transformation of the enol of 3-indolylpyruvic acid in tryptophan is observed: the transformation is rather linear in time, is independent from the pH—at least in the 6.5÷7.5 interval—and it leads to the conversion of over the 50% of the ketoacid in 5 hours.
# [9] = Solubility of the enol form in solvents; format: physicochemical
# rats = assay: Pharmacological tests in rats, oral and IP; format: in vivo, rat
# [10] = cited from earlier work
# [11] = phosphate solution pH 7.4, +1 hour
structure (smiles),measurement,setting,value
"O=C(O)/C(O)=C/c1c[nH]c2ccccc12 [3-IPA ENOL, enol tautomer of 3-indolylpyruvic acid]",enol plasma concentration curve,[1],remaining at clearly detectable levels for a few hours
same,transformation into 3-indolyl-lactic acid,[2],No transformation
same,average length of the neurites,[3],31.9 ± 6.8 micrometers
same,time in which keto-enol equilibrium shifts towards the keto form,[4]; diluted NaOH solutions,a few seconds
same,stability in methanol,"[4]; methanol, several days at room temperature",extremely stable
same,enol form remaining,"[4]; phosphate solution pH 7.4, +30 min",44%
same,enol form remaining,[4]; [11],23%
same,gem-diole form formed,[4]; [11],44%
same,gem-diole form formed,"[4]; phosphate solution pH 7.4, about +2 hours",~49%
same,inhibition at 125 µM,"[5]; Homo sapiens, 125 μM",44 ± 5%
same,inhibition at 250 µM,"[5]; Homo sapiens, 250 μM",77 ± 11%
same,inhibition at 500 µM,"[5]; Homo sapiens, 500 μM",97 ± 2%
same,neutralizing power towards superoxide anion and hydroxyl ions,superoxide anion,strong neutralizing power
same,concentration at 1 hour,"[6]; 100 mg/kg, chronic",183 ± 78 µg/mL
same,concentration at 1 h,"[6]; 100 mg/kg, gastric lavage, 100 mg/Kg, acute, +1 hour",74 ± 14 µg/mL
same,concentration at 1 hour,"[6]; 400 mg/kg, acute",160 ± 13 µg/mL
same,concentration at 1 hour,"[6]; 400 mg/kg, chronic",189 ± 68 µg/mL
same,concentration at 1 h,"[7]; 100 mg/kg, chronic, read-out: plasma rate",97 ± 17 µg/mL
same,concentration at 1 h,"[7]; 100 mg/kg, food-mixed pellets, 100 mg/Kg, acute, read-out: plasma rate",106 ± 47 µg/mL
same,concentration at 1 h,"[7]; 285 mg/kg, acute, read-out: plasma concentration",136 ± 17 µg/mL
same,concentration at 1 h,"[7]; 285 mg/kg, chronic, read-out: plasma concentration",120 ± 8 µg/mL
same,stability in slightly alkaline buffer environments,"[8]; pH 7.4, rat tissue homogenates",good stability
same,solubility in acetone,[9]; acetone,highly soluble
same,solubility in chloroform,[9]; chloroform,wholly insoluble
same,solubility in ethanol,[9]; ethanol,highly soluble
same,solubility in ethyl ether,[9]; ethyl ether,slightly soluble
same,solubility in methanol,[9]; methanol,highly soluble
same,solubility in water,[9]; water,wholly insoluble
same,observed effects compared with the mixture of the two tautomers,rats; mixture in pH 7.4 phosphate buffer,clearly superior
same,pharmacological properties on the cardiovasculary system,rats; orally and by IP injection,"pressure reduction in hypertensive rats, but not in normotensive rats"
same,pharmacological properties on the central nervous system,rats; orally and by IP injection,"prolongation of sleep, central analgesia, protection from NMDA-induced convulsions, reduction of toxic effects from opiates, anxiolytic and antidepressant effects, stress inhibition"
"O=C([O-])C(O)=Cc1c[nH]c2ccccc12.O=C([O-])C(O)=Cc1c[nH]c2ccccc12.[Ca+2] [Ca salt, calcium salt of the enol form of 3-indolylpyruvic acid]",average length of the neurites,[3],32.7 ± 8.3 micrometers
same,Inhibition %,[5]; 70 μM,38 ± 10%
same,Inhibition %,[5]; 140 μM,82 ± 6%
"O=C(O)Cc1c[nH]c2ccccc12 [3-Indolylacetic acid, reference compound]",effect on neurite length (in words),[3],do not influence neurite length
same,average length of the neurites,[3],23.3 ± 10.5 micrometers
"O=C([O-])C(O)=Cc1c[nH]c2ccccc12.[K+] [K salt, potassium salt of the enol tautomer of 3-indolylpyruvic acid]",average length of the neurites,[3],44.1 ± 12.1 micrometers
same,Inhibition %,[5]; 125 μM,51 ± 3%
same,Inhibition %,[5]; 250 μM,78 ± 3%
"O=C(O)Cc1c[nH]c2ccc(O)cc12 [5-Hydroxy-Indolylacetic acid, reference compound]",effect on neurite length (in words),[3],do not influence neurite length
same,average length of the neurites,[3],25.7 ± 13.2 micrometers
"O=C(O)C(=O)Cc1c[nH]c2ccccc12 [keto form, reference compound]",transformation to tryptophan or to 3-indolyl-lactic acid,[8]; rat tissue homogenates,no significant transformations
same,effects on the considered pharmacological parameters,rats; keto form solubilized in 0.1M NaOH,no apparent effects
"O=C([O-])C(O)=Cc1c[nH]c2ccccc12.[Li+] [Li salt, lithium salt of the enol tautomer of 3-indolylpyruvic acid]",average length of the neurites,[3],29.4 ± 8.5 micrometers
same,Inhibition %,[5]; 125 μM,48 ± 7%
same,Inhibition %,[5]; 250 μM,91 ± 5%
"O=C([O-])C(O)=Cc1c[nH]c2ccccc12.[Na+] [Na salt, sodium salt of the enol form of 3-indolylpyruvic acid]",average length of the neurites,[3],28.3 ± 16.4 micrometers
same,Inhibition %,[5]; 125 μM,52 ± 1%
same,Inhibition %,[5]; 250 μM,78 ± 3%
O=C(O)C(=O)Cc1c[nH]c2ccccc12 [3-indolylpyruvic acid],time in which UV spectrum of the enol tautomer converted to that of the keto tautomer,[10]; Schwarz 1961,over 2 hours
same,time in which largely converted to the keto form,"[10]; solution at pH 8.0, Schwarz and Bitancourt 1960",20 min
O=C(O)C(O)Cc1c[nH]c2ccccc12 (centres unmarked) [3-Indolyllactic acid],effect on neurite length (in words),[3],noticeable effects on neurite length
same,average length of the neurites,[3],39.7 ± 11.8 micrometers
"O=C([O-])C(O)=Cc1c[nH]c2ccccc12.O=C([O-])C(O)=Cc1c[nH]c2ccccc12.[Mg+2] [Mg salt, magnesium salt of the enol form of 3-indolylpyruvic acid]",average length of the neurites,[3],40.1 ± 17.5 micrometers
same,Inhibition %,[5]; 65 μM,46 ± 14%
same,Inhibition %,[5]; 130 μM,66 ± 7%
